In ChEMBL document CHEMBL6153076, “Discovery of novel JQ1 derivatives as dual ferroptosis and apoptosis inducers for the treatment of triple-negative breast cancer” (Eur J Med Chem, 2025):
Activity calls are given as the source filed them. The calls are words filed in the database; no cut-off is given here. Residues, ends and D or L forms follow the SMILES beside them. *: point of attachment. Cbz = O=C(OCc1ccccc1)*; CH2F = FC*

Key:
BT-549 [1] = assay: Induction of ferroptosis in human BT-549 cells assessed as cell death in presence of Z-VAD-FMK; assay type: functional, cell-based
MDA-MB-231 [2] = assay: Induction of ferroptosis in human MDA-MB-231 cells assessed as cell death in presence of Z-VAD-FMK; assay type: functional, cell-based
MDA-MB-231 [3] = assay: cells; details: Homo sapiens, MDA-MB-231, 72 h
Description: Antiproliferative activity against human MDA-MB-231 cells assessed as inhibition of cell proliferation incubated for 72 hrs by MTT assay

BT-549 [4] = assay: cells; details: Homo sapiens, BT-549, 72 h
Description: Antiproliferative activity against human BT-549 cells assessed as inhibition of cell proliferation incubated for 72 hrs by MTT assay

[5] = Cytotoxicity against human MCF-10A cells assessed as inhibition of cell proliferation incubated for 72 hrs by MTT assay; assay type: toxicity, cell-based
[6] = Selectivity index, ratio of IC50 for antiproliferative activity against human MCF-10A cells assessed as inhibition of cell proliferation to IC50 for antiproliferative activity against human MDA-MB-231 cells assessed as inhibition of cell proliferation; assay type: toxicity, cell-based; details: MCF-10A cells and MDA-MB-231 cells, read-out: Ratio IC50
MDA-MB-231 [7] = assay: Induction of apoptosis in human MDA-MB-231 cells; assay type: functional, cell-based
MDA-MB-231 [8] = assay: Induction of ferroptosis in human MDA-MB-231 cells assessed as cell death in presence of ferrostatin-1; assay type: functional, cell-based
BT-549 [9] = assay: Induction of ferroptosis in human BT-549 cells assessed as cell death in presence of ferrostatin-1; assay type: functional, cell-based
MDA-MB-231 [10] = assay: Induction of cell cycle arrest in human MDA-MB-231 cells assessed as accumulation of cells at G0/G1 phase at 5 uM incubated for 48 hrs by propidium iodide staining flow cytometric analysis (reference value: 64.56 %); assay type: functional
MDA-MB-231 [11] = assay: Downregulation of HO-1 expression in human MDA-MB-231 cells at 5 uM; assay type: functional, cell-based
MDA-MB-231 [12] = assay: Downregulation of NRF2 expression in human MDA-MB-231 cells at 5 uM; assay type: functional, cell-based
MDA-MB-231 [13] = assay: Induction of apoptosis in human MDA-MB-231 cells assessed as necrotic cells at 5 uM incubated for 48 hrs by Annexin V/PI staining based flow cytometry analysis (reference value: 0.03%); assay type: functional
MDA-MB-231 [14] = assay: Induction of apoptosis in human MDA-MB-231 cells assessed as early apoptotic cells at 5 uM incubated for 48 hrs by Annexin V/PI staining based flow cytometry analysis (reference value: 0.80%); assay type: functional
MDA-MB-231 [15] = assay: Induction of apoptosis in human MDA-MB-231 cells assessed as late apoptotic cells at 5 uM incubated for 48 hrs by Annexin V/PI staining based flow cytometry analysis (reference value: 0.14%); assay type: functional
MDA-MB-231 [16] = assay: Induction of apoptosis in human MDA-MB-231 cells assessed as viable cells at 5 uM incubated for 48 hrs by Annexin V/PI staining based flow cytometry analysis (reference value: 97.85%); assay type: functional; details: read-out: Activity
MDA-MB-231 [17] = assay: Induction of cell cycle arrest in human MDA-MB-231 cells assessed as accumulation of cells at G2/M phase at 5 uM incubated for 48 hrs by propidium iodide staining flow cytometric analysis (reference value: 8.69%); assay type: functional
MDA-MB-231 [18] = assay: Induction of cell cycle arrest in human MDA-MB-231 cells assessed as accumulation of cells at S phase at 5 uM incubated for 48 hrs by propidium iodide staining flow cytometric analysis (reference value: 26.75%); assay type: functional
[19] = target: T1, Phospholipid hydroperoxide glutathione peroxidase GPX4 (Homo sapiens) (UniProt P36969); assay: Inhibition of GPX4 (unknown origin) upto 3 uM incubated for 60 mins in presence of NADPH by absorbance based analysis
T1 sequence (whole entry): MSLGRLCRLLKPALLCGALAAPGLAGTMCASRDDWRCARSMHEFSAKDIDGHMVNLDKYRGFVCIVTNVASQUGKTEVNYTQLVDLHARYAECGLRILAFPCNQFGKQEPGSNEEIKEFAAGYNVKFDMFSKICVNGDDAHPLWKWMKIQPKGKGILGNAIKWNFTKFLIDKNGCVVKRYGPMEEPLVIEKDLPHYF

MDA-MB-231 [20] = assay: Antiproliferative activity against human MDA-MB-231 cells assessed as reduction in cell proliferation incubated for 72 hrs by MTT assay; assay type: functional, cell-based

Structure (SMILES) | IC50 (MDA-MB-231 [3]) | IC50 (BT-549 [4]) | other results
CCOC(=O)c1ccc(NC2CCCCC2)c(N)c1 | – | – | Activity (BT-549 [1]): Active; Activity (MDA-MB-231 [2]): Active
Cc1sc2c(c1C)C(c1ccc(Cl)cc1)=N[C@@H](CC(=O)NCCN1CCN(C(=O)CCl)CC1)c1nnc(C)n1-2 | 5940 nM | 6990 nM | –
Cc1sc2c(c1C)C(c1ccc(Cl)cc1)=N[C@@H](CC(=O)NCCNC(=O)CCl)c1nnc(C)n1-2 | 3150 nM | 2400 nM | –
Cc1sc2c(c1C)C(c1ccc(Cl)cc1)=N[C@@H](CC(=O)N1CCN(C(=O)CCl)CC1)c1nnc(C)n1-2 | 740 nM | 720 nM | IC50 at 72 h [5]: 1150 nM; selectivity ratio [6]: 1.55
Cc1sc2c(c1C)C(c1ccc(Cl)cc1)=N[C@@H](CC(=O)Nc1ccc(CNC(=O)CCl)cc1)c1nnc(C)n1-2 | 1460 nM | 1070 nM | –
CC(C)[C@H](NC(=O)OCc1ccccc1)C(=O)N[C@@H](C)C(=O)N[C@@H](CC(=O)O)C(=O)CF (Cbz-Val-Ala-Asp-CH2F) | – | – | Activity (MDA-MB-231 [7]): inactive; Activity (MDA-MB-231 [8]): Active; Activity (BT-549 [9]): Active
Cc1sc2c(c1C)C(c1ccc(Cl)cc1)=N[C@@H](CC(=O)NCCCNC(=O)CCl)c1nnc(C)n1-2 | 4570 nM | 2270 nM | –
Cc1sc2c(c1C)C(c1ccc(Cl)cc1)=N[C@@H](CC(=O)OC(C)(C)C)c1nnc(C)n1-2 | 25900 nM | 20100 nM | Activity (MDA-MB-231 [10]): 50.48%; Activity (MDA-MB-231 [11]): Active; Activity (MDA-MB-231 [12]): Active; IC50 at 72 h [5]: 46400 nM; Activity (MDA-MB-231 [13]): 0.66%; selectivity ratio [6]: 1.79; Activity (MDA-MB-231 [14]): 16.44%; Activity (MDA-MB-231 [15]): 16.28%; viability at 5 µM (MDA-MB-231 [16]): 66.4%; Activity (MDA-MB-231 [17]): 18.29%; Activity (MDA-MB-231 [18]): 31.23%
Cc1sc2c(c1C)C(c1ccc(Cl)cc1)=N[C@@H](CC(=O)Nc1ccc(NC(=O)CCl)cc1)c1nnc(C)n1-2 | 1400 nM | 970 nM | –
Cc1sc2c(c1C)C(c1ccc(Cl)cc1)=N[C@@H](CC(=O)NCCOCCNC(=O)CCl)c1nnc(C)n1-2 | 3880 nM | 3400 nM | –
Cc1sc2c(c1C)C(c1ccc(Cl)cc1)=N[C@@H](CC(=O)Nc1ccc(CCNC(=O)CCl)cc1)c1nnc(C)n1-2 | 13700 nM | 17100 nM | –
Cc1sc2c(c1C)C(c1ccc(Cl)cc1)=N[C@@H](CC(=O)NCCCCCNC(=O)CCl)c1nnc(C)n1-2 | 5570 nM | 2620 nM | –
Cc1sc2c(c1C)C(c1ccc(Cl)cc1)=N[C@@H](CC(=O)NCc1ccc(NC(=O)CCl)cc1)c1nnc(C)n1-2 | 1500 nM | 1000 nM | –
Cc1sc2c(c1C)C(c1ccc(Cl)cc1)=N[C@@H](CC(=O)Nc1ccc(N3CCN(C(=O)CCl)CC3)cc1)c1nnc(C)n1-2 | 5310 nM | 7530 nM | –
Cc1sc2c(c1C)C(c1ccc(Cl)cc1)=N[C@@H](CC(=O)NCCCCCCNC(=O)CCl)c1nnc(C)n1-2 | 5250 nM | 5390 nM | –
Cc1sc2c(c1C)C(c1ccc(Cl)cc1)=N[C@@H](CC(=O)NCCCCNC(=O)CCl)c1nnc(C)n1-2 | 4640 nM | 5280 nM | –
Cc1sc2c(c1C)C(c1ccc(Cl)cc1)=N[C@@H](CC(=O)NCc1ccc(CNC(=O)CCl)cc1)c1nnc(C)n1-2 | 1370 nM | 950 nM | –
Cc1sc2c(c1C)C(c1ccc(Cl)cc1)=N[C@@H](CC(=O)NCCc1ccc(NC(=O)CCl)cc1)c1nnc(C)n1-2 | 690 nM | 850 nM | IC50 at 72 h [5]: 1540 nM; selectivity ratio [6]: 2.26
Cc1sc2c(c1C)C(c1ccc(Cl)cc1)=N[C@@H](CC(=O)NCCC1CCN(C(=O)CCl)CC1)c1nnc(C)n1-2 | 3490 nM | 3190 nM | –
CC(=O)N1CCC(NC(=O)C[C@@H]2N=C(c3ccc(Cl)cc3)c3c(sc(C)c3C)-n3c(C)nnc32)CC1 | – | – | inhibition [19]: inactive; Activity (MDA-MB-231 [20]): Active
Cc1sc2c(c1C)C(c1ccc(Cl)cc1)=N[C@@H](CC(=O)NCC1CCN(C(=O)CCl)CC1)c1nnc(C)n1-2 | 1000 nM | 720 nM | IC50 at 72 h [5]: 1470 nM; selectivity ratio [6]: 1.47
Cc1sc2c(c1C)C(c1ccc(Cl)cc1)=N[C@@H](CC(=O)NCCOCCOCCNC(=O)CCl)c1nnc(C)n1-2 | 3030 nM | 1720 nM | –
Cc1sc2c(c1C)C(c1ccc(Cl)cc1)=N[C@@H](CC(=O)NCCCN1CCN(C(=O)CCl)CC1)c1nnc(C)n1-2 | 2260 nM | 2460 nM | –
